pIC50, pKi: −log10 of the molar value. Like-named read-outs stand apart in the source and are kept apart here.
How the values were obtained:
[1] = biological target: T1, NΔ360 (derivative of EBNA1) (Epstein-Barr virus, UniProt P03211); assay type: biochemical; conditions: for pKi: 6.5 nM dimers of NΔ360, 20 fmols DNA with two EBNA1-binding sites, Ki = concentration of competitor which inhibits linking to 50%, read-out: Ki against NΔ360
T1 construct: NΔ360 and NΔ389 have a methionine followed by amino acids 361 and 390 to the carboxy-terminus, respectively; added initiator methionine (N); made in house; host or cells: E. coli
Description: (§1) Two DNAs used as probes in this study were generated by endonuclease digestion of cloned DNAs. That with two EBNA1-binding sites is the 131 bp, SalI to PstI fragment derived from p880 (30); and that with five GAL4-binding sites is the 109 bp, HinDIII to XbaI fragment derived from G5BCAT (31). DNA fragments were purified from agarose gels. […] This method distinguishes less than two-fold differences in DNA concentrations. These DNAs were labeled with the Klenow fragment of DNA Polymerase 1 in the presence of dATP, dGTP, dTTP, and ^32P α-dCTP (Amersham), and precipitated three times to remove unincorporated label (32).
(§2) The derivatives of EBNA1 (bEBNA1, NΔ360, NΔ389) and the GAL4 derivatives (GAL4(1-94), GAL4(1-94)&54-89, GAL4(1-94)&331-361, GAL4(1-94)&372-391) used in this study were all produced and purified as previously described (28). Briefly, bEBNA1 lacks amino acids 2 through 7 and all but fifteen amino acids of the gly-gly-ala repeats and was expressed in SF21 cells (23). NΔ360 and NΔ389 lack the first 360 and 389 amino acids, respectively, and were expressed in E. coli. GAL4(1-94) contains amino acids 1 to 94 of the yeast transactivator GAL4 plus eight carboxy-terminal amino acids coded by the poly-cloning region. The fusions designated GAL4(1-94)&#—# contain the indicated residues from EBNA1 cloned in frame into the poly-cloning region. All derivatives and fragments of EBNA1 were derived from the B95-8 viral strain (33, 15).
(§3) A.A. 40-89 and A.A. 331-391 were generated by amplifying the fragment of EBNA1 encoding those amino acids with PCR primers containing SalI and XbaI sites at the 5′ ends. […] The sequence of both clones was verified using an ABI Prism automated sequencer (Applied BioSystems). Expression of the fusion proteins in BL21 bacteria containing a DE3 lysogen and carrying pLysS was done as previously described (28). Purification using Ni^2+-NTA agarose (Qiagen) followed standard protocols (The QIAexpressionist, Qiagen). Following elution of A.A. 40-89 and A.A. 331-391 in 500 and 150 mM imidazole, respectively, the peptides were dialyzed into a buffer containing 50 mM Tris (pH 7.5), 2.5 mM EDTA, and 0.3 M NaCl.
(§4) Gel shift assays were done as previously described (28). All reactions contained 20 mM N-2-hydroxyethylpiperazine-N′-2-ethanesulfonic acid (HEPES; pH 7.6), 2 mM EDTA, 10% glycerol, 0.1% Nonidet P-40, and 0.3 M NaCl. Proteins were mixed in volume of 15 μl. The labeled DNA and 3 μg of poly(dI)•poly(dC) (Pharmacia) in 8 μl were added with mixing. The reactions were then incubated 30-45 minutes at room temperature. Reactions were separated by electrophoresis at 15-25 mA through a 4% polyacrylamide gel in 0.5×TBE (45 mM Tris-borate and 1 mM EDTA). Gels were dried on 3MM chromatography paper (Whatman) at 80° C. for 1 hour and then exposed to phosphorimager screens. The percentage of DNA linked is determined by dividing the amount of linked DNA by the total amount of DNA in the lane.
(§5) FIG. 3A: 20 fmols of a DNA with two EBNA1-binding sites were combined with the indicated concentrations of dimers of NΔ360 and A.A. 331-391 prior to separation by electrophoresis through a 4% polyacrylamide gel. […] The positions of linked DNA, unbound DNA, and DNA with one and two sites occupied by NΔ360 (1 and 2, respectively) are indicated. […] The percentage bound is the fraction of the total DNA in the lane which is shifted above the bracket for unbound DNA. […] The standard deviations are from three separate experiments.

[2] = biological target: bEBNA1 (derivative of EBNA1); assay type: biochemical, Epstein-Barr virus; conditions: for pKi: 6.5 nM dimers of bEBNA1, 20 fmols DNA with two EBNA1-binding sites, Ki = concentration of competitor which inhibits linking to 50%, read-out: Ki against bEBNA1; for Ki for linking by bEBNA1 relative to linking by NΔ360: DNA with two EBNA1-binding sites; for Effectiveness of competition with linking by bEBNA1 relative to linking by NΔ360: DNA with two binding sites
Procedure: (§6) Two DNAs used as probes in this study were generated by endonuclease digestion of cloned DNAs. That with two EBNA1-binding sites is the 131 bp, SalI to PstI fragment derived from p880 (30); and that with five GAL4-binding sites is the 109 bp, HinDIII to XbaI fragment derived from G5BCAT (31). DNA fragments were purified from agarose gels. They were quantified by making serial dilutions in the presence of ethidium bromide (0.5 μg/mL) and comparing their intensities, when exposed to ultraviolet light, to that of similar dilutions of a standard DNA. This method distinguishes less than two-fold differences in DNA concentrations. These DNAs were labeled with the Klenow fragment of DNA Polymerase 1 in the presence of dATP, dGTP, dTTP, and ^32P α-dCTP (Amersham), and precipitated three times to remove unincorporated label (32).
as §2, §3, §4

[3] = system: DNA with two EBNA1-binding sites; assay: Gel shift assay: binding of the peptides to DNA in the absence of NΔ360; conditions: for Concentration reducing linking to 50% as percentage of concentration required to bind 50% of the DNA: 6.5 nM dimers of NΔ360, DNA binding in absence of NΔ360; for Difference between Ki and concentration which bound 50% of the DNA: linking by NΔ360 vs DNA binding by peptide alone
Description: as §1, §4, §5

GAL4(1-94)&54-89 = biological target: T2, GAL4(1-94)&54-89 (Epstein-Barr virus, UniProt P03211); assay: Gel shift assay: inhibition of DNA-linking by GAL4(1-94)&54-89; assay type: biochemical; conditions: 2.5-fold molar excess of competitor; DNA with five GAL4-binding sites (FIG. 2A)
T2 construct: made in house
Procedure: as §6, with “(32). […]” for “(32).”
Gel shift assays were done as previously described (28). […] The percentage of DNA linked is determined by dividing the amount of linked DNA by the total amount of DNA in the lane.
The ability of GAL4(1-94)&54-89 (FIG. 1) to link DNAs containing five GAL4-binding sites was tested in the absence of any competitor and in the presence of a 2.5-fold molar excess of three derivatives of EBNA1 (FIG. 1). […] For both FIGS. 2A and B the reactions were manipulated and analyzed to determine the percentage of maximum DNA linked as in FIG. 3. […]

[4] = DNA with two EBNA1-binding sites, read-out: Concentration for 50% inhibition of linking by NΔ360
[5] = linking by NΔ360, DNA with two binding sites

A.A. 40-89: EBNA1 amino acids 40-89 fused to an amino-terminal epitope (T7 Tag) and 6 carboxy-terminal histidines, expressed in bacteria
pKi [1]: 7.26 | pIC50 [1, 4]: 7.26 | pKi [2]: 5.12 | Ki for linking by bEBNA1 relative to linking by NΔ360 [2]: 140 fold | Effectiveness of competition with linking by bEBNA1 relative to linking by NΔ360 [2]: approximately 1% | Concentration reducing linking to 50% as percentage of concentration required to bind 50% of the DNA [3]: 1% | Difference between Ki and concentration which bound 50% of the DNA [3]: 100 fold

A.A. 331-391: EBNA1 amino acids 331-391 fused to an amino-terminal epitope (T7 Tag) and 6 carboxy-terminal histidines, expressed in bacteria
pKi [1]: 7.52 | Excess of competitor relative to NΔ360 that halves the percentage of DNA linked ([1]; DNA with two EBNA1-binding sites): 5 fold | pIC50 [1, 4]: 7.52 | Effectiveness of competition for linking of the ten binding site DNA relative to the two binding site DNA ([1]; linking by NΔ360, data not shown): approximately 0.3% | pKi [2]: 5.48 | Ki for linking by bEBNA1 relative to linking by NΔ360 [2]: 110 fold | Effectiveness of competition with linking by bEBNA1 relative to linking by NΔ360 [2]: approximately 1% | Concentration reducing linking to 50% as percentage of concentration required to bind 50% of the DNA [3]: 2% | Difference between Ki and concentration which bound 50% of the DNA [3]: 50 fold

GAL4(1-94): Amino acids 1 to 94 of the yeast transactivator GAL4 plus eight carboxy-terminal amino acids coded by the poly-cloning region [reference compound]
Inhibition of linking by NΔ360 ([1]; 4.5-fold molar excess of GAL4-derivative, DNA with two EBNA1-binding sites (FIG. 2B)): did not inhibit linking

NΔ360: EBNA1 derivative lacking the first 360 amino acids, expressed in E. coli
Inhibition of linking by GAL4(1-94)&54-89 (GAL4(1-94)&54-89): inhibited linking

Poly-Lysine [reference compound]
pKi [1]: 5.72 | pIC50 ([1]; DNAs with two EBNA1-binding sites, read-out: Concentration inhibiting linking by NΔ360 to 50%): 5.72 | Ki of polyK relative to Ki of A.A. 40-89 [1, 5]: 35 fold | Ki of polyK relative to Ki of A.A. 331-391 [1, 5]: 60 fold | pKi [2]: 4.96 | Ki for linking by bEBNA1 relative to linking by NΔ360 [2]: 6 fold

Reference: US6960429B2, “Inhibition of viral gene activities” (priority 1997, dated 2005)
